pIC50: −log10 of the molar value. Where two headings read alike, the source gives them in different places.

One data set deals with T1, HIV-1 RT (Human immunodeficiency virus type 1 group M subtype B, UniProt P04585).
T1 construct: HIV-1 RT enzyme (final concentrations of 1-3 nM)
Kind of data set: HIV-1 Reverse Transcriptase Assay (RNA-dependent DNA polymerase activity, SPA). It counts as biochemical. Here is the method:
HIV-1 Reverse Transcriptase Assay
RNA-dependent DNA polymerase activity was measured using a biotinylated primer oligonucleotide and tritiated dNTP substrate. Newly synthesized DNA was quantified by capturing the biotinylated primer molecules on streptavidin coated Scintillation Proximity Assay (SPA) beads (Amersham). The sequences of the polymerase assay substrate were: 18 nt DNA primer, 5′-Biotin/GTC CCT GTT CGG GCG CCA-3′; 47 nt RNA template, 5′-GGGUCUCUCUGGUUAGACCACUCUAGCAGUGGCGCCCGAACAGGGAC-3′. The biotinylated DNA primer was obtained from the Integrated DNA Technologies Inc. and the RNA template was synthesized by Dharmacon. The DNA polymerase assay (final volume 50 μl) contained 32 nM biotinylated DNA primer, 64 nM RNA substrate, dGTP, dCTP, dTTP (each at 5 μM), 103 nM [^3H]-dATP (specific activity=[…]), in 45 mM Tris-HCl, pH 8.0, 45 mM NaCl, 2.7 mM Mg(CH3COO)2, 0.045% Triton X-100 w/v, 0.9 mM EDTA. The reations contained 5 ul of serial compound dilutions in 100% DMSO for IC50 determination and the final concentrations of DMSO were 10%. Reactions were initiated by the addition of 30 μl of the HIV-1 RT enzyme (final concentrations of 1-3 nM). Protein concentrations were adjusted to provide linear product formation for at least 30 min of incubation. After incubation at 30° C. for 30 min, the reaction was quenched by addition of 50 μl of 200 mM EDTA (pH 8.0) and 2 mg/ml SA-PVT SPA beads (Amersham, RPNQ0009, reconstituted in 20 mM Tris-HCl, pH 8.0, 100 mM EDTA and 1% BSA). The beads were left to settle overnight and the SPA signals were counted in a 96-well top counter-NXT (Packard). IC50 values were obtained by sigmoidal regression analysis using GraphPad.

In data set [1] the test system is HXB2-strain of HIV-1 in MT4 cells. Kind of data set: Antiviral Assay (protection of HIV-1-infected MT4 cells from cell death, MTT). Type of data set: cell-based. The conditions noted are these: Human immunodeficiency virus 1, 120 h, MT4 cells infected with HXB2-strain of HIV-1, 5 days. Here is the method: Anti-HIV-1 antiviral activity was assessed using an adaptation of the method of Pauwels et al. (Pauwels et al., J Virol Methods 1988 20:309-321). The method is based on the ability of compounds to protect HIV-1-infected T lymphoblastoid cells (MT4 cells) from cell-death mediated by the infection. The endpoint of the assay was calculated as the concentration of compound at which the cell viability of the culture was preserved by 50% (‘50% inhibitory concentration’, IC50). The cell viability of a culture was determined by the uptake of soluble, yellow 3-[4,5-dimethylthiazol-2-yl]-2,5-diphenyltetrazolium bromide (MTT) and its reduction to a purple insoluble formazan salt. After solubilization, spectrophotometric methods were employed to measure the amount of formazan product. […]
A fresh solution of 5 mg/mL MTT was prepared in 0.01 M phosphate buffered saline, pH 7.2 and 20 microliters added to each culture. […] When the formazan deposit was fully solubilized by further mixing, the absorbance (OD) of the cultures was measured at 540 nm and 690 nm wavelength (690 nm readings were used as blanks for artifacts between wells). The percent protection for each treated culture was then calculated from the equation: […]

[2] abbreviates: HIV-1 RT enzyme 1-3 nM, 30° C., 30 min, read-out: HIV-1 RT IC50.

On to `CCc1n[nH]c(=O)n1Cc1ccc(Br)c(Oc2cc(Cl)cc(C#N)c2)c1F` [Compound I-9, 3-[6-Bromo-3-(3-ethyl-5-oxo-1,5-dihydro-[1,2,4]triazol-4-ylmethyl)-2-fluoro-phenoxy]-5-chloro-benzonitrile], for which the melting point fell in the range of 264 to 265 °C. Further, the negative logarithm of the IC50 (pIC50) at HIV-1 RT (setting [2]) is 7.71.
The matching figures for `N#Cc1cc(Cl)cc(Oc2c(Br)ccc(CNC(=O)Nc3ccccc3F)c2F)c1` [Compound I-11]: 215.5 to 215.8 °C and 7.48.
As for `N#Cc1cc(Cl)cc(Oc2c(Br)ccc(Cn3c(=O)[nH]c4cnccc43)c2F)c1` [Compound I-4, 3-[6-Bromo-2-fluoro-3-(2-oxo-2,3-dihydro-imidazo[4,5-c]pyridin-1-ylmethyl)-phenoxy]-5-chloro-benzonitrile], the melting point was 219 to 221.5 °C. At HIV-1 RT, the negative logarithm of the IC50 (pIC50) was 8.30. Further, in data set [1], the negative-log IC50 (pIC50) was 9.40.
Turning to `N#Cc1cc(Cl)cc(Oc2c(Br)ccc(Cn3c(=O)[nH]c4c[n+]([O-])ccc43)c2F)c1` [Compound I-5], the melting point lay within 226.8 to 229 °C. Moreover, the pIC50 at HIV-1 RT (setting [2]) is 6.31.
The matching figures for `N#Cc1cc(Cl)cc(Oc2c(Br)ccc(Cn3c(=O)[nH]c4ncccc43)c2F)c1` [Compound I-2, 3-[6-Bromo-2-fluoro-3-(2-oxo-2,3-dihydro-imidazo[4,5-b]pyridin-1-ylmethyl)-phenoxy]-5-chloro-benzonitrile]: 255.5 to 258.5 °C and 8.24.
The matching figures for `N#Cc1cc(Cl)cc(Oc2c(Br)ccc(COC(=O)Nc3ccc(Cl)cc3Cl)c2F)c1` [Compound I-12]: 138.3 to 139.9 °C and 7.17.
Take `N#Cc1cc(Cl)cc(Oc2c(Br)ccc(Cn3c(=O)[nH]c4nnccc43)c2F)c1` [Compound I-7, 3-[6-Bromo-2-fluoro-3-(6-oxo-6,7-dihydro-imidazo[4,5-c]pyridazin-5-ylmethyl)-phenoxy]-5-chloro-benzonitrile]: the pIC50 on HIV-1 RT (setting [2]) was 8.29.
For `N#Cc1cc(Cl)cc(Oc2c(Cl)ccc(Cn3c(=O)[nH]c4cnccc43)c2F)c1` [Compound I-6, 3-Chloro-5-[6-chloro-2-fluoro-3-(2-oxo-2,3-dihydro-imidazo[4,5-c]pyridin-1-ylmethyl)-phenoxy]-benzonitrile], the melting point lay in the range of 232 to 233 °C. Also, at HIV-1 RT (setting [2]), the pIC50 is 8.15.
The matching figures for `N#Cc1cc(Cl)cc(Oc2c(Br)ccc(Cn3c(=O)[nH]c4c3ccc[n+]4[O-])c2F)c1` [Compound I-3]: 259 to 260 °C and 7.80.
The matching figures for `N#Cc1cc(Cl)cc(Oc2c(Br)ccc(Cn3cn[nH]c3=O)c2F)c1` [Compound I-8, 3-[6-Bromo-2-fluoro-3-(5-oxo-1,5-dihydro-[1,2,4]triazol-4-ylmethyl)-phenoxy]-5-chloro-benzonitrile]: 107 °C and 7.35.
Regarding `Cc1n[nH]c(=O)n1Cc1ccc(Br)c(Oc2cc(Cl)cc(C#N)c2)c1F` [Compound I-10, 3-[6-Bromo-2-fluoro-3-(3-methyl-5-oxo-1,5-dihydro-[1,2,4]triazol4-ylmethyl)-phenoxy]-5-chloro-benzonitrile], the melting point lay in the range of 129.9 to 131 °C. In addition, the negative logarithm of the IC50 (pIC50) at HIV-1 RT (setting [2]) was 7.26.
The matching figures for `N#Cc1cc(Cl)cc(Oc2c(Br)ccc(Cn3c(=O)[nH]c4ccccc43)c2F)c1` [Compound I-1, 3-[6-Bromo-2-fluoro-3-(2-oxo-2,3-dihydro-benzoimidazol-1-ylmethyl)-phenoxy]-5-chloro-benzonitrile]: 227 to 229 °C and 7.91.

What is called pIC50 is the IC50 on a negative log10 scale, so that one unit is a factor of ten. Broadly, the melting point is the temperature, or range, at which the solid turns liquid.

(Values after US7947709B2, “Non-nucleoside reverse transcriptase inhibitors” (Roche Palo Alto LLC, priority 2007, dated 2011).)
